The source of these data is patent US8138167B2, “Methods for treating lung cancers” (Oncotherapy Science, Inc., priority 2006, dated 2012).

Like-named read-outs stand apart in the source and are kept apart here.

Assay [1] has as its system advanced non-small-cell lung cancer. The conditions noted are these: Japanese patients with advanced NSCLC treated since approval; cited from earlier work.
Another assay concerns lung cancer. The following applies: cited from earlier work.
The subject of the next assay is PC-9 cells. The conditions noted are these: gefitinib-sensitive, amphiregulin-nonexpressing NSCLC line PC-9; upon autocrine secretion of amphiregulin; cited from earlier work.
Assay [2] relates to progressive non-small-cell lung cancer. Description: gefitinib therapy (250 mg/day) of 50 patients with progressive non-small-cell lung cancer, overall evaluation of tumor response.
[3] abbreviates: 50 progressive NSCLC patients, gefitinib 250 mg/day, evaluation after four months.
The mark [4] stands for this setting: of 50 patients after gefitinib therapy.

In the case of `COc1cc2ncnc(Nc3ccc(F)c(Cl)c3)c2cc1OCCCN1CCOCC1` [gefitinib, N-(3-chloro-4-fluorophenyl)-7-methoxy-6-(3-morpholinopropoxy)quinazolin-4-amine], the “patients showing no improvement in symptoms” value in assay [1] is on record as 60%. In addition, the median survival time in the assay with lung cancer (adenocarcinoma patients, gefitinib arm (placebo […])) was 6.3 months. The median survival time in the assay with lung cancer (all parent populations, gefitinib arm (placebo 5.1)) was 5.6 months. For the same compound, the “antitumor activity of gefitinib on PC-9 cells” value in the assay with PC-9 cells was “dramatically reduced”. Besides, in assay [2] (setting [3]), the “disease control rate (CR+PR+SD/CR+PR+SD+PD)” value stood at 40.0% and the “tumor response rate (CR+PR/CR+PR+SD+PD)” value is 16.0%. Moreover, in assay [2] (setting [4]), the “patients classified as CR” value is “none”, the “patients classified as PD” value is 30 patients, the “patients classified as PR” value was “eight” and the “patients classified as SD” value turned out to be 12 patients.
